The source of these data is article PMC5538625, “Perception of root‐active CLE peptides requires CORYNE function in the phloem vasculature” (EMBO Reports, 2017).

pKd: −log10 of the molar value. Where no end group is shown, it is not given here.

Assay [1] has as its system bam3 mutant seedlings (primary root). The following applies: compared with WT; ref Depuydt et al., 2013; cited from earlier work. From the text: “6. We'd also like the authors to answer or discuss following aspects in the discussion part.” “6-1. How do you explain the insensitivity of crn to all CLE peptides? Does it control expression of CLV as well?” At this point we can only speculate on this. As we highlight in the discussion, maybe the expression of other, yet to be identified CLE receptors in the root also depends on CR ...

The next assay concerns BAM3. The note with it: ref Shinohara et al., 2012; cited from earlier work. The source says: page 6: EMBO reports - Peer Review Process File - EMBO-2016-43535 of both. […] Or alternatively to measure mRNA level by qRT-PCR. This will at least resolve if it's transcriptional regulation or not. 3. One way to bolster their statement about CRN's BAM3 regulation would be to do a simple complementation. If authors' already generated CRN::CRN in crn mutant background, we highly recommend that the authors use this line as well. BAM3-BAM3-CITRINE construct are introduced ...

In assay [2] the target is T1, PXY extracellular domain (30–647) (Arabidopsis thaliana, UniProt Q9FII5).
T1 construct: PXY/TDR (30–647); azurocidin signal peptide (N); made in house; host or cells: Spodoptera frugiperda Sf9 insect cells (baculovirus, secreted)
T1 sequence (Q9FII5 30-647): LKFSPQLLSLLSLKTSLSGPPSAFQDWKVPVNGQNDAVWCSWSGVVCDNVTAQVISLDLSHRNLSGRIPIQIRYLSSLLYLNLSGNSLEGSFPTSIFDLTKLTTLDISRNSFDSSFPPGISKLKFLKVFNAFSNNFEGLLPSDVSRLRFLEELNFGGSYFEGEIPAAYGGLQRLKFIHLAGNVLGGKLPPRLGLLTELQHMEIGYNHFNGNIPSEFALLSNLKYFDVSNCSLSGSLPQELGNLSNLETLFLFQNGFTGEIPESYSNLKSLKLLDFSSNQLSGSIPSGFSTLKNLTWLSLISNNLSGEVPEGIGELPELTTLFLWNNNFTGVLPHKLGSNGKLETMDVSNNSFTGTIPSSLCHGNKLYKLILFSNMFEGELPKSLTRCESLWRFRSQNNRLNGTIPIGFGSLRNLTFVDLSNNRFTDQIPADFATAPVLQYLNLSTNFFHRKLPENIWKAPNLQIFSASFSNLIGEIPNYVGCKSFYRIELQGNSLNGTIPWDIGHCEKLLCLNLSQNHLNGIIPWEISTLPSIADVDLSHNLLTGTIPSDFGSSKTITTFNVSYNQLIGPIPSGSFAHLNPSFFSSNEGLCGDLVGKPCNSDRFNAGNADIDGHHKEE
The assay can be described thus: ITC of purified PXY extracellular domain vs. CLE41/44. The following applies: binding affinity (range), isolated PXY ectodomain; range joins own value (Fig EV1B) and ref 25.

The subject of assay [3] is Arabidopsis Col-0 seedlings (primary root). Put plainly: Root growth assay, wild type (Col-0). The assay is classed as in vivo, Arabidopsis thaliana. The note with it: 50 nM peptide, 9-day-old seedlings, primary root length, n ≥ 12. The procedure: Plant tissue culture, plant transformation, and common molecular biology procedures such as genomic DNA isolation, genotyping, sequencing, and peptide or inhibitor treatments were performed according to standard procedures as previously described 9, 19, 44, 65.
All mutant and transgenic lines were in the Arabidopsis Columbia‐0 (Col‐0) background. The following previously described mutant alleles were used throughout: brx‐2, bam3‐2, brx‐2 bam3, clv2‐1, serk1‐1 and serk1‐3, serk2‐1, serk3‐1, serk4‐1, serk5‐1 9, 47, 59, 66, 67, 68. The crn loss‐of‐function mutant allele (crn‐10) carries a single nucleotide insertion in front of the 7th codon, which leads to a frameshift and three subsequent premature stop codons after amino acid 10 52.

Assay [4] has as its system crn seedlings expressing CRN-CITRINE under control of the BAM3 promoter. The assay can be described thus: Root growth, BAM3::CRN-CITRINE in crn (protophloem-specific CRN). In kind it is in vivo, Arabidopsis thaliana. The note with it: 50 nM peptide, 7-day-old seedlings. From the text:
Figure 3 Protophloem‐specific CRN action in the root meristem • A Expression pattern of BAM3, CLV2, and CRN‐CITRINE fusion proteins (green fluorescence) under control of their native promoters (blue fluorescence: calcofluor white cell wall staining) (confocal microscopy). Asterisks mark developing protophloem sieve element strands. • B, C Expression pattern of CRN‐CITRINE fusion protein under control of the BAM3 promoter in Col‐0 (B) or crn (C) background. Arrowhead in (C) highlights plasma membrane‐localized CRN. • D Representative 7‐day‐old crn seedlings expressing CRN‐CITRINE fusion protein under control of the BAM3 promoter grown on mock or CLE45. • E Primary root length of 7‐day‐old seedlings of indicated genotypes, grown on mock or 50 nM of selected CLE peptides. Differences as compared to ^a: Col‐0 or ^b: crn are not statistically significant unless indicated (Student's t‐test); *P < 0.05; **P < 0.01; ***P < 0.001; mean ± s.e.m. • F Expression of nuclear localized, fluorescent VENUS protein under control of the CVP2 promoter (which specifically marks developing protophloem sieve elements), 24 h after transfer from standard media to 50 nM of selected CLE peptides. Arrowheads indicate the cells closest to the tip in which CVP2 expression was still detectable. […]

“CLE9: CLE9 (earlier reports) (RLVPSGPNPLHN; ends and bridges not checked; UniProt Q9FZE4 109-120, looked up)”: the “root response of bam3 mutants” value in assay [1] is given as “not suppressed in bam3 mutant plants”. Besides, in the assay on BAM3, the “binding to BAM3, in words” value is on record as “BAM3 has been shown to have a binding activity to CLE9”. As a reminder, the pKd is −log10 of the Kd, conventionally taken in molar units. A lower pKd goes with a large Kd. In assay [2], HEVPSGPNPISN [CLE41/44] had a pKd of 7.52 to 8.00. As to RKVPRGPDPIHN [CLE26, CLE26: …], the “impact on root growth” value in assay [3] was “significant, reproducible impact on root growth”. The “sensitivity after protophloem-specific CRN expression in crn” value in assay [4] is “restored sensitivity”.
